In this experiment the test system is RAG01 (derived from fibroblasts of a patient diagnosed with SSMD) fibroblasts. As to the kind of experiment: CellTiter-Glo concentration response in RAG01 fibroblasts. The format is cell-based, human. The settings on record: RAG01 cell line, 72 hours incubation, CellTiter-Glo, percentage effect normalized to vehicle control, 10-point CRC from 10 μM, read-out: EC50. On the procedure: Compounds described herein were tested in three cell lines, RAG01 (derived from fibroblasts of a patient diagnosed with SSMD) fibroblasts, RAG02 (derived from fibroblasts of the patient's parent), and GM09503 (from supplier Corriell) (derived from a healthy donor) to each generate 10-point concentration response curves (CRC). The three cell lines were each thawed seven (7) days prior to seeding. The RAG01 cells were thawed in a medium supplemented with a-tocopherol. Cells were passaged four (4) days prior to the seeding. The α-tocopherol was removed from the RAG01 cells. Cells were then seeded at 900 cells per well in 384-well plates. Two replicates were prepared for two independent (replicate) experiments. All plates were then incubated with compounds described herein for 72 hours, prior to CellTiter-Glo assay. […] The assay was run using the CellTiter-Glo (Promega) following manufacturer's guidelines and luminescent spectrophotometric reading on PHERAstar FSX (BMG Labtech). A 0.1% dimethylsulfoxide (DMSO) was used as a blank (vehicle control); and a 1 μM Ferrostatin-1 was used as a control (CTRL).
The raw data was analyzed using Activity Base® software. The compounds were evaluated by efficacy (percentage effect) normalized to the vehicle control. The percentage effect (PE) was determined from the signal increase in comparison to the vehicle control according to the formula below: […]
The percentage effect values were then plotted against log concentration of the drug to generate a concentration response curve. The curves were fitted using a four-parameter fit, and curve tops and hillslopes were fixed where required and justified.

pEC50: −log10 of the molar value. Like-named read-outs stand apart in the source and are kept apart here.

In the case of `C=CC(=O)Nc1cccc(Nc2nc(Nc3ccc(NC4CN(CCF)C4)cc3OC)ncc2C(F)(F)F)c1` [compound 68, CNX-2006], the pEC50 (Homo sapiens, Fibroblast) is 6.44. Take `OC(CNc1ccccc1)Cn1c2ccc(Br)cc2c2cc(Br)ccc21` (centres unmarked) [compound 94, P7C3]: for the setting “Homo sapiens, Fibroblast”, the pEC50 was 6.19. On the same count and under the same terms, then `Cc1[nH]c2ccc(Cl)cc2c1C1=CCNCC1` [compound 51, EMD-386088], with 5.87. Consider licochalcone [compound 21], for which the pEC50 was 5.97. In the case of `O=C1c2ccccc2-n2c1nc1ccccc1c2=O` [compound 10, trypthanthrin], the pEC50 (Homo sapiens, Fibroblast) was 6.74.

For `CC1=C(C(=O)OC(C)C)C(c2cccc([N+](=O)[O-])c2)C(C(=O)OC2CN(C(c3ccccc3)c3ccccc3)C2)=C(N)N1` (centres unmarked) [compound 1, azelnidipine], the pEC50 (Homo sapiens, Fibroblast) is 5.51. Same read-out and setting: then `O=C1NC(=O)c2cc(Nc3ccccc3)c(Nc3ccccc3)cc21` [compound 66, CGP 52411], with 6.69; and `Oc1ccc(/C=C/c2cc(O)cc(O)c2)cc1` [compound 22, resveratrol], with 5.17.

As for `CCCCCS(=O)(=O)CCCCCCCCCCn1c(-c2ccc(O)cc2)c(C)c2cc(O)ccc21` [compound 6, ZK-164015], the pEC50 (Homo sapiens, Fibroblast) was 5.79. The same measure, in the same setting: under `O=C1Nc2cc(Br)ccc2/C1=C1/Nc2ccccc2/C1=N\O` [compound 79, GSK-3-inhibitor-IX] stands 6.25; under `C=CC(=O)Nc1cc(Nc2nccc(-c3cn(C)c4ccccc34)n2)c(OC)cc1N(C)CCN(C)C` [compound 67, osimertinib], 6.61; under `CC(C)(C)[C@@]1(O)CCN2C[C@@H]3c4ccccc4CCc4cccc(c43)[C@H]2C1` [compound 35, butaclamol], 5.59. Still for that read-out and setting: under `CN1CCc2cccc3c2[C@H]1Cc1ccc(O)c(O)c1-3` [compound 36, apomorphine] stands 6.85; under `OCCN1CCN(CCCN2c3ccccc3Sc3ccc(Cl)cc32)CC1` [compound 44, perphenazine], 5.85; under `Cc1cc(N2CCOCC2)ccc1Nc1nc(NC2CCCCC2)c2nc[nH]c2n1` [compound 81, MPI-0479605], 6.16.

As for `Brc1ccc(NC2C3CC4CC(C3)CC2C4)cc1` (centres unmarked) [compound 60, bromantane], for the setting “Homo sapiens, Fibroblast”, the pEC50 is 6.37. `CCCCCCCCCCC(O)C1C=CC2C(=O)N(c3ccccc3)C(=O)C2N1Nc1ccc([N+](=O)[O-])cc1` (centres unmarked) [compound 89, A12B4C3]: the pEC50 is 5.57.

Turning to `CC#C[C@]1(O)CC[C@H]2[C@@H]3CCC4=CC(=O)CCC4=C3[C@@H](c3ccc(N(C)C)cc3)C[C@@]21C` [compound 20, Mifepristone], the pEC50 (Homo sapiens, Fibroblast) was 5.64. Take `COC1=C(OC)C(=O)C(CCCCCCCCCCO)=C(C)C1=O` [compound 14, idebenone]: where the note is “Homo sapiens, Fibroblast”, the pEC50 is 5.80. Turning to `CN1CCN(c2ccc(C(=O)c3c(-c4ccc(O)cc4)sc4cc(O)ccc34)cc2)CC1` [compound 4, Y-134], the pEC50 (Homo sapiens, Fibroblast) was 6.37. On the same count and under the same terms, then `Clc1ccc2c(c1)N=C(N1CCNCC1)c1ccccc1N2` [compound 34, desmethylclozapine], with 5.57.

As for butylated hydroxyanisole [compound 11], the pEC50 is 5.93.

With `CC(C)(CO)Cc1cc(C(C)(C)C)c(O)c(C(C)(C)C)c1` [compound 58, 2,6-ditert-butyl-4-(3-hydroxy-2,2-dimethylpropyl)phenol], the pEC50 (Homo sapiens, Fibroblast) was 6.46. Consider `COc1cc(OC)cc(C(=O)NNC(=O)Nc2cccc3ccccc23)c1` [compound 107, TC-O-9311], for which, where the note is “Homo sapiens, Fibroblast”, the pEC50 is 5.45. Still for that read-out and setting: under `Cc1ccccc1C(=O)c1ccc(Nc2ccc(Br)cc2N)cc1Cl` [compound 83, EO-1428] stands 5.98; under `CCOC(=O)Nc1ccc2c(c1)N(C(=O)CCN(CC)CC)c1ccccc1S2` [compound 42, ethacizine], 6.32. Still for that read-out and setting: under `CC(=O)O[C@]1(C(C)=O)CC[C@H]2[C@@H]3CCC4=CC(=O)CCC4=C3[C@@H](c3ccc(N(C)C)cc3)C[C@@]21C` [compound 18, ulipristal acetate] stands 5.63.

For the compound `Oc1ccc2c3c1O[C@H]1c4[nH]c5ccccc5c4C[C@@]4(O)[C@@H](C2)N(CC2CC2)CC[C@]314` [compound 57, Naltrindole], the pEC50 (Homo sapiens, Fibroblast) is 5.62. Same read-out and setting: under `CC(C)=CCc1c(O)cc(O)c2c(=O)c(O)c(-c3ccc(C(F)(F)F)cc3)oc12` [compound 8, SNG1153] stands 5.26; under `Cc1c(NC(=O)OC[C@@H]2COCCN2)cn2ncnc(Nc3ccc4c(cnn4Cc4cccc(F)c4)c3)c12` [compound 88, BMS-599626], 5.64.

For the compound `CC(C)(C)C(=O)/C(=N/c1ccc(Cl)cc1)NNc1ccc(Cl)cc1` [compound 90, TY 52156], where the note is “Homo sapiens, Fibroblast”, the pEC50 is 6.93. Same read-out and setting: under `Cc1ccc(F)c(NC(=O)Nc2ccc(-c3cccc4[nH]nc(N)c34)cc2)c1` [compound 87, Linifanib] stands 5.78; under `CCCN(C/C=C/I)C1CCc2ccc(O)cc2C1` (centres unmarked) [compound 40, 7-hydroxy-PIPAT], 5.56. As for `Cc1ccc(NC(=O)c2ccc(CN3CCN(C)CC3)cc2)cc1Nc1nc(-c2cccnc2)cs1` [compound 82, Masitinib (AB1010)], where the note is “Homo sapiens, Fibroblast”, the pEC50 was 6.04. Turning to `C[C@@H]1CC(=O)c2c(ccc3c2C(=O)c2cccc(O)c2C3=O)C1` [compound 98, ochromycinone], where the note is “Homo sapiens, Fibroblast”, the pEC50 was 5.94.

`COc1cc(N2CCC(N3CCN(C)CC3)CC2)ccc1Nc1ncc(Cl)c(Nc2ccccc2S(=O)(=O)C(C)C)n1` [compound 76, NVP-TAE684]: the pEC50 (Homo sapiens, Fibroblast) was 6.32.

As for `Cn1cc(/C=C/C(=O)c2cccc(F)c2)cc1/C=C/C(=O)NO` [compound 108, MC1568], under “Homo sapiens, Fibroblast”, the pEC50 is 5.42. Same read-out and setting: under `CS(=O)(=O)CCNCc1ccc(-c2ccc3ncnc(Nc4ccc(OCc5cccc(F)c5)c(Cl)c4)c3c2)o1` [compound 71, lapatinib] stands 5.29; under `CCN1CCC(n2cc(CNc3cc(Cl)c4ncc(C#N)c(Nc5ccc(F)c(Cl)c5)c4c3)nn2)CC1` [compound 72, Cot inhibitor-2], 7.11; under `C=C(C)CN1CC[C@]23c4c5ccc(O)c4OC2c2[nH]c4ccccc4c2C[C@@]3(O)[C@H]1C5` (some centres unmarked) [compound 56, SDM25N], 5.85. For `COC(=O)/C=C/c1cccc(N(Cc2ccc(-c3ccc(N(C)C)cc3)cc2)C(=O)C2CCCCC2)c1` [compound 104, Fexaramine], under “Homo sapiens, Fibroblast”, the pEC50 is 5.76. Same read-out and setting: under `COc1ccc(-c2nc(-c3ccc(-c4cccc(Cl)c4)o3)[nH]c2-c2ccc(OC)cc2)cc1` [compound 96, neurodazine] stands 6.02; under `COc1cc2c(cc1O)C(CCc1ccc(Cl)cc1)N(C)CC2` (centres unmarked) [compound 61, Ro 04-5595], 6.19; under `CNC(=O)c1ccccc1Nc1cc(Nc2ccc(N3CCOCC3)cc2OC)ncc1C(F)(F)F` [compound 77, PND-1186 (VS-4718)], 6.21. Same read-out and setting: under `CC1(S(=O)(=O)O)CC(=O)c2ccccc2C1=O` (centres unmarked) [compound 13] stands 5.80.

In the case of piperacetazine [compound 45], the pEC50 was 5.80.

Turning to `N#Cc1ccc(-c2csc(NN=C3CCCC3)n2)cc1` [compound 103, remodelin], under “Homo sapiens, Fibroblast”, the pEC50 is 5.81. Turning to `CCC[C@H](N[C@H]1CCc2cc(F)cc(F)c2C1)C(=O)Nc1cn(C(C)(C)CNCC(C)(C)C)cn1` [compound 110, Nirogacestat], the pEC50 (Homo sapiens, Fibroblast) is 5.25. Same read-out and setting: then `c1ccc2c(Oc3nc(Nc4ccc(N5CCOCC5)cc4)c4ncn(C5CCCCC5)c4n3)cccc2c1` [compound 97, Purmorphamine], with 5.96; and `CCOc1cc(N2CCC(O)CC2)ccc1Nc1ncc2c(n1)N(C1CCCC1)CCC(=O)N2C` [compound 80, Mps1-IN-1], with 6.34. The same measure, in the same setting: under `CC(CN(C)C)CN1c2ccccc2Sc2ccc(C#N)cc21` (centres unmarked) [compound 43, cyamemazine] stands 5.86; under `C#C[C@]1(O)CC[C@H]2[C@@H]3CCc4cc(O)ccc4[C@H]3CC[C@@]21C` [compound 19, ethinyl estradiol], 5.35; under `COC(=O)c1sccc1S(=O)(=O)Nc1ccc(Nc2ccccc2)cc1OC` [compound 93, GSK-0660], 6.36. Still for that read-out and setting: under `CC(C)(C)c1cc(C(C)(C)C)c(NC(=O)c2c[nH]c3ccccc3c2=O)cc1O` [compound 105, ivacaftor] stands 5.74; under `O=C1NC(=O)c2cc(Nc3ccc(F)cc3)c(Nc3ccc(F)cc3)cc21` [compound 73, CGP 53353], 6.77; under `O=c1c(O)c(-c2ccc(O)cc2)oc2cc(O)cc(O)c12` [compound 16, kaempferol], 5.49. Consider `CCCN(C/C=C/I)C1CCc2cccc(O)c2C1` (centres unmarked) [compound 52, 8-hydroxy-PIPAT], for which the pEC50 (Homo sapiens, Fibroblast) is 5.62.

Turning to `COc1ccc2cccc(N3CCN(CCNC(=O)c4ccc(F)cc4)CC3)c2c1` [compound 50, S-14,506], the pEC50 (Homo sapiens, Fibroblast) is 6.03. Same read-out and setting: then `COc1ccc2nc3cc(Cl)ccc3c(Nc3cc(CN4CCCC4)c(O)c(CN4CCCC4)c3)c2n1` [compound 92, pyronaridine], with 6.38.

The values are drawn from US20230414628A1, “METHODS FOR TREATING DISEASES MEDIATED BY GLUTATHIONE PEROXIDASE 4” (priority 2022, published 2023).
